Assay results as given in PubChem BioAssay (NCI).
Several values for one entry are separate records, joined by “and”; a condition that tells them apart may be missing. Equal values may be shown once.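 Where inhibition never reached the appropriate level, the endpoint shown equals the highest concentration tested. Otherwise, values were interpolated linearly from a five-concentration, 48-hour dose response in 96-well plates. The concentration for 50% growth inhibition is given as GI50. Definition used: TGI = concentration required for complete inhibition of growth.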

Columns and labels:
Assay in all cases: growth of human tumour cells (NCI), 48 h
HOP-92 NSCLC = test system: HOP-92 NSCLC
DU-145 prostate = test system: DU-145 prostate
LXFL 529 NSCLC = test system: LXFL 529 NSCLC
SK-MEL-5 melanoma = test system: SK-MEL-5 melanoma
NCI/ADR-RES ovarian = test system: NCI/ADR-RES ovarian
A498 renal = test system: A498 renal
KM20L2 colon = test system: KM20L2 colon
SF-295 CNS = test system: SF-295 CNS
A549 NSCLC = test system: A549 NSCLC
CCRF-CEM leukemia = test system: CCRF-CEM leukemia

Structure (SMILES) | GI50 (HOP-92 NSCLC) | TGI (HOP-92 NSCLC) | GI50 (DU-145 prostate) | TGI (DU-145 prostate) | GI50 (LXFL 529 NSCLC) | TGI (LXFL 529 NSCLC) | GI50 (SK-MEL-5 melanoma) | TGI (SK-MEL-5 melanoma) | GI50 (NCI/ADR-RES ovarian) | TGI (NCI/ADR-RES ovarian) | GI50 (A498 renal) | TGI (A498 renal) | GI50 (KM20L2 colon) | TGI (KM20L2 colon) | GI50 (SF-295 CNS) | TGI (SF-295 CNS) | GI50 (A549 NSCLC) | TGI (A549 NSCLC) | TGI (CCRF-CEM leukemia) | GI50 (CCRF-CEM leukemia)
CCC[CH2][Sn]([CH2]CCC)([O]C(=O)c1cccc(F)c1F)[O][Sn]([CH2]CCC)([CH2]CCC)[O]C(=O)c1cccc(F)c1F | 0.13 µM | 0.399 µM | 0.457 µM | 1.63 µM | 0.0222 µM | 0.157 µM | 0.52 µM | 1.69 µM | 0.3 µM | 1.32 µM | 0.202 µM | 0.526 µM | 0.727 µM | 2.1 µM | 0.919 µM | 2.19 µM | 1.78 µM | 3.44 µM |  | 
O[C@H]1[C@H]2[C@H](O)CCCN2C[C@H]1O |  | > 100 µM |  |  |  | > 100 µM |  | > 100 µM |  |  |  | > 100 µM |  | > 100 µM |  | > 100 µM |  | > 100 µM | > 100 µM | 
C/C=C/CP(=O)(c1ccccc1)c1ccccc1 |  |  |  |  |  | > 100 µM |  | > 100 µM |  |  |  | > 100 µM |  | > 100 µM |  | > 100 µM |  | > 100 µM | > 100 µM | 
CC1=Cc2cc3[n-]c(cc4nc(cc5[n-]c(cc1n2)c(C)c5CCC(=O)O)C(CCC(=O)O)=C4C)cc3C.[Cu+2] | > 1 µM and 13.6 µM | > 1 µM and 34.3 µM | 23.5 µM | 85.1 µM | > 1 µM and 12.4 µM | > 100 µM | > 1 µM and 14.5 µM | > 1 µM and 31.5 µM | 37.2 µM | > 100 µM | > 1 µM and 16.2 µM | > 1 µM and 36.5 µM | > 100 µM | > 100 µM | 51.3 µM | > 96.9 µM | > 1 µM and 70.9 µM | > 100 µM | > 68.5 µM | > 1 µM and 12.1 µM
NC1=NN(c2ccccc2)C(=O)C1C(=O)C(=O)Nc1cccc(C(F)(F)F)c1 (configuration not stated) |  | > 100 µM |  |  |  | > 100 µM |  | > 100 µM |  |  |  | > 100 µM |  | > 100 µM |  | > 100 µM |  | > 100 µM | > 100 µM | 
CC1CC(C)C(=O)C(C(=O)CC2CC(=O)NC2=O)C1 (configuration not stated) |  | > 100 µM |  |  |  | > 100 µM |  |  |  |  |  | > 100 µM |  | > 100 µM |  | > 100 µM |  | > 100 µM | > 100 µM | 
O=C1C(Br)=C(c2ccccc2)C(c2ccccc2)=C1c1ccccc1 |  | 3.84 µM |  | 25.9 µM |  | 2.84 µM |  | 9.35 µM |  |  |  | 29.9 µM |  | 13.1 µM |  | 23.5 µM |  | 28.1 µM | 2.02 µM | 
